For 20 compounds, T/C results are on record in PubChem BioAssay AID248 (DTP/NCI, 2004).

Inconclusive results and toxic doses are left out.

The experiment concerns L1210 leukemia ip in BDF1 mice, survival T/C. Kind of experiment: NCI In Vivo Anticancer Drug Screen. Data for tumor model L1210 Leukemia (intraperitoneal) in B6D2F1 (BDF1) mice. To be noted: endpoint: mean survival time, higher = longer survival. A digest of the protocol:
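Ratio derived from survival: compound-dosed mice over vehicle-dosed mice, all bearing a transplantable tumor.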

[1] abbreviates: dose: 100.0 mg/kg/injection, schedule: Q01DX001 (ip), vehicle: saline.
The mark [2] stands for this setting: dose: 200.0 mg/kg/injection, schedule: Q01DX001 (ip), vehicle: saline.
Where [3] appears, read: dose: 400.0 mg/kg/injection, schedule: Q01DX001 (ip), vehicle: saline.
[4] abbreviates: dose: 100.0 mg/kg/injection, schedule: Q01DX009 (ip), vehicle: saline with Tween-80.
Setting [5] is: dose: 200.0 mg/kg/injection, schedule: Q01DX009 (ip), vehicle: saline with Tween-80.
Setting [6] is: dose: 25.0 mg/kg/injection, schedule: Q04DX003 (ip), vehicle: Klucel (hydroxypropylcellulose) (HPC).
Where [7] appears, read: dose: 100.0 mg/kg/injection, schedule: Q01DX009 (ip), vehicle: Klucel (hydroxypropylcellulose) (HPC).
The mark [8] stands for this setting: dose: 100.0 mg/kg/injection, schedule: Q04DX003 (ip), vehicle: Klucel (hydroxypropylcellulose) (HPC).
The mark [9] stands for this setting: dose: 200.0 mg/kg/injection, schedule: Q01DX009 (ip), vehicle: Klucel (hydroxypropylcellulose) (HPC).
Setting [10] is: dose: 200.0 mg/kg/injection, schedule: Q04DX003 (ip), vehicle: Klucel (hydroxypropylcellulose) (HPC).
Where [11] appears, read: dose: 400.0 mg/kg/injection, schedule: Q01DX009 (ip), vehicle: Klucel (hydroxypropylcellulose) (HPC).
The mark [12] stands for this setting: dose: 400.0 mg/kg/injection, schedule: Q04DX003 (ip), vehicle: Klucel (hydroxypropylcellulose) (HPC).
The mark [13] stands for this setting: dose: 6.25 mg/kg/injection, schedule: Q01DX009 (ip), vehicle: saline.
Where [14] appears, read: dose: 12.5 mg/kg/injection, schedule: Q01DX009 (ip), vehicle: saline.
[15] abbreviates: dose: 25.0 mg/kg/injection, schedule: Q01DX009 (ip), vehicle: saline.
Where [16] appears, read: dose: 25.0 mg/kg/injection, schedule: Q04DX003 (ip), vehicle: saline.
Where [17] appears, read: dose: 400.0 mg/kg/injection, schedule: Q01DX009 (ip), vehicle: saline with Tween-80.
Where [18] appears, read: dose: 100.0 mg/kg/injection, schedule: Q04DX003 (ip), vehicle: saline with Tween-80.
[19] abbreviates: dose: 200.0 mg/kg/injection, schedule: Q04DX003 (ip), vehicle: saline with Tween-80.
The mark [20] stands for this setting: dose: 400.0 mg/kg/injection, schedule: Q04DX003 (ip), vehicle: saline with Tween-80.

For `C/C(=C/CO)CC/C=C(\C)CC/C=C(\C)CCC1OC1(C)C` (centres undefined), the T/C is, setting by setting: under setting [1], 92 % of control; under setting [2], 96 % of control; under setting [3], 102 % of control.
Turning to `Cn1c2c(c(=O)n(C)c1=O)C(C=O)C(=O)N2` (centres undefined), the T/C by setting is: (dose: 100.0 mg/kg/injection, schedule: Q04DX002 (ip), vehicle: saline) 101 % of control; (dose: 200.0 mg/kg/injection, schedule: Q04DX002 (ip), vehicle: saline) 87 % of control; (dose: 400.0 mg/kg/injection, schedule: Q04DX002 (ip), vehicle: saline) 90 % of control.
As for `NC1=NN(c2ccccc2)C(=O)/C1=C\c1ccccc1`, the T/C (dose: 50.0 mg/kg/injection, schedule: Q01DX009 (ip), vehicle: saline with Tween-80) was 102 % of control; the T/C under setting [4] was 98 % of control; the T/C under setting [5] was 91 % of control.
Turning to `COc1ccc2c(c1)CCC1CC(=O)C=C21` (centres undefined), the T/C is, setting by setting: (dose: 100.0 mg/kg/injection, schedule: Q01DX009 (ip), vehicle: saline sonified) 113 % of control; (dose: 200.0 mg/kg/injection, schedule: Q01DX009 (ip), vehicle: saline sonified) 103 % of control; (dose: 400.0 mg/kg/injection, schedule: Q01DX009 (ip), vehicle: saline sonified) 104 % of control.
In the case of `CCOC(=O)c1cc2c3n(c1=O)CCCC3C(c1ccncc1)OC2=O` (centres undefined), the T/C is 95 % of control (dose: 75.0 mg/kg/injection, schedule: Q04DX003 (ip), vehicle: saline); 100 % of control (dose: 150.0 mg/kg/injection, schedule: Q04DX003 (ip), vehicle: saline); 95 % of control (dose: 300.0 mg/kg/injection, schedule: Q04DX003 (ip), vehicle: saline).
Take `CS(=O)(=O)n1c(C(Cl)c2ccccc2)nc2ccccc21` (centres undefined): the T/C under setting [1] is 102 % of control, the T/C under setting [2] was 104 % of control and the T/C under setting [3] is 120 % of control.
`O=C1CN(O)C(c2ccccc2)=c2cc(Cl)ccc2=N1`: the T/C was 100 % of control (dose: 25.0 mg/kg/injection, schedule: Q01DX009 (ip), vehicle: Klucel (hydroxypropylcellulose) (HPC)); 98 % of control under setting [6]; 101 % of control (dose: 50.0 mg/kg/injection, schedule: Q01DX009 (ip), vehicle: Klucel (hydroxypropylcellulose) (HPC)); 108 % of control (dose: 50.0 mg/kg/injection, schedule: Q04DX003 (ip), vehicle: Klucel (hydroxypropylcellulose) (HPC)); 95 % of control under setting [7]; 90 % of control under setting [8]. The T/C under setting [9] is 92 % of control, the T/C under setting [10] was 93 % of control, the T/C under setting [11] is 108 % of control and the T/C under setting [12] was 98 % of control.
`c1ccc(-c2cn3ccccc3n2)cc1`: the T/C by setting is: (dose: 100.0 mg/kg/injection, schedule: Q01DX001 (ip), vehicle: saline with Tween-80) 94 % of control; under setting [8], 96 % of control; (dose: 200.0 mg/kg/injection, schedule: Q01DX001 (ip), vehicle: saline with Tween-80) 92 % of control; under setting [10], 94 % of control; (dose: 400.0 mg/kg/injection, schedule: Q01DX001 (ip), vehicle: saline with Tween-80) 94 % of control; under setting [12], 98 % of control.
`CCCCC(CCCC)(C(N)=O)C(=O)OCC`: the T/C reads like this: under setting [7], 105 % of control; under setting [9], 100 % of control; under setting [11], 94 % of control.
For the compound `CCN(CC)CCC1CCNCC1`, the T/C runs as follows: under setting [13], 101 % of control; under setting [14], 95 % of control; (dose: 12.5 mg/kg/injection, schedule: Q04DX003 (ip), vehicle: saline) 100 % of control; under setting [15], 98 % of control; under setting [16], 96 % of control.
For the compound `C/C(Cc1ccccc1)=N\O`, the T/C reads like this: (dose: 59.0 mg/kg/injection, schedule: Q01DX009 (ip), vehicle: saline with Tween-80) 107 % of control; under setting [4], 104 % of control; (dose: 118.0 mg/kg/injection, schedule: Q01DX009 (ip), vehicle: saline with Tween-80) 109 % of control; (dose: 236.0 mg/kg/injection, schedule: Q01DX009 (ip), vehicle: saline with Tween-80) 103 % of control; under setting [17], 97 % of control.
Take `CCN(CC)CCNC(=O)c1ccc(N=Cc2cc(Br)ccc2O)cc1`: the T/C is, setting by setting: under setting [7], 98 % of control; under setting [9], 96 % of control.
As for `NC(N)=N/N=C/c1cccc2ccccc12`, the T/C is 102 % of control (dose: 3.8 mg/kg/injection, schedule: Q01DX Z (ip), vehicle: other); 95 % of control under setting [13]; 104 % of control (dose: 6.25 mg/kg/injection, schedule: Q04DX003 (ip), vehicle: Klucel (hydroxypropylcellulose) (HPC)); 97 % of control (dose: 7.5 mg/kg/injection, schedule: Q01DX Z (ip), vehicle: other); 98 % of control under setting [14]; 100 % of control (dose: 12.5 mg/kg/injection, schedule: Q04DX003 (ip), vehicle: Klucel (hydroxypropylcellulose) (HPC)). Moreover, the T/C by setting is: (dose: 15.0 mg/kg/injection, schedule: Q01DX Z (ip), vehicle: other) 105 % of control; under setting [15], 88 % of control; under setting [6], 104 % of control; (dose: 30.0 mg/kg/injection, schedule: Q01DX Z (ip), vehicle: other) 94 % of control.
For `CSc1ssc(=Nc2ccc(C)cc2)c1-c1ccccc1`, the T/C by setting is: under setting [7], 95 % of control; under setting [8], 88 % of control; under setting [9], 93 % of control; under setting [10], 91 % of control; under setting [11], 93 % of control; under setting [12], 89 % of control.
`COc1ccc(OC)c(C(=O)CCCC(=O)O)c1`: the T/C (dose: 100.0 mg/kg/injection, schedule: Q01DX009 (ip), vehicle: acetone) is 91 % of control; the T/C under setting [18] is 96 % of control; the T/C (dose: 200.0 mg/kg/injection, schedule: Q01DX009 (ip), vehicle: acetone) is 86 % of control; the T/C under setting [19] was 89 % of control; the T/C (dose: 400.0 mg/kg/injection, schedule: Q01DX009 (ip), vehicle: acetone) is 90 % of control; the T/C under setting [20] was 91 % of control.
Consider `Cc1cccc(CC23CC4CC(CC(C4)C2)C3)c1`, for which the T/C is 91 % of control under setting [4]; 102 % of control under setting [18]; 90 % of control under setting [5]; 100 % of control under setting [19]; 95 % of control under setting [17]; 98 % of control under setting [20].
In the case of `O=c1[nH]cnc2nccnc12`, the T/C reads like this: under setting [16], 100 % of control; (dose: 50.0 mg/kg/injection, schedule: Q04DX003 (ip), vehicle: saline) 101 % of control; (dose: 100.0 mg/kg/injection, schedule: Q04DX003 (ip), vehicle: saline) 88 % of control; (dose: 200.0 mg/kg/injection, schedule: Q04DX003 (ip), vehicle: saline) 90 % of control.
`Cc1c(Cl)cccc1N=C=S`: the T/C is, setting by setting: (dose: 75.0 mg/kg/injection, schedule: Q01DX001 (ip), vehicle: saline) 95 % of control; (dose: 150.0 mg/kg/injection, schedule: Q01DX001 (ip), vehicle: saline) 97 % of control; (dose: 300.0 mg/kg/injection, schedule: Q01DX001 (ip), vehicle: saline) 100 % of control.
As for `Cc1ncc(C(C)(O)c2ccccc2)n1C` (centres undefined), the T/C under setting [4] was 105 % of control and the T/C under setting [5] is 94 % of control.
Turning to `O=NN(CCF)C(=O)NC1C2CC3CC(C2)CC1C3` (centres undefined), the T/C is 114 % of control (dose: 12.5 mg/kg/injection, schedule: Q01DX001 (ip), vehicle: other); 123 % of control (dose: 25.0 mg/kg/injection, schedule: Q01DX001 (ip), vehicle: other); 167 % of control (dose: 50.0 mg/kg/injection, schedule: Q01DX001 (ip), vehicle: other).
